In this experiment the target is T1, human adenosine A2b receptor (Homo sapiens, UniProt P29275).
T1 sequence (P29275 1-332): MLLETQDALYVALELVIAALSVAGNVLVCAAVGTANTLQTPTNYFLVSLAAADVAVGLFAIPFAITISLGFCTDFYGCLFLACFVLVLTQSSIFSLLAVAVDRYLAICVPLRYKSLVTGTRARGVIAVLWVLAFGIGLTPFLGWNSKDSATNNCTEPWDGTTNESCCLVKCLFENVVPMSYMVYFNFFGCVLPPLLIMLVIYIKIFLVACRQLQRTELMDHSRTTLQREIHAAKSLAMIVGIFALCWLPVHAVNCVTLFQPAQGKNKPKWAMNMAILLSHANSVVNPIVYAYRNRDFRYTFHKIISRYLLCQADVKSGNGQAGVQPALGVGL
Description: Cellular in vitro reporter gene test for A2b receptor activity (antagonism of NECA). Format: cell-based. The arrangement: expressed in transfected cells; host or cells: CHO-K1 (Chinese hamster ovary) with CRE-luciferase reporter. Particulars: recombinant CHO-K1 cells, CRE-luciferase reporter, co-incubation with EC50 concentration of NECA, 3 hours. Here is the method:
The identification of selective antagonists of the human adenosine A2b receptor and the quantification of the efficacy and selectivity of the compounds according to the invention was carried out with the aid of recombinant cell lines for the human adenosine receptors A1, A2a, A2b and A3. These cell lines were originally derived from an ovarepithelial cell of the hamster (Chinese Hamster Ovary, CHO-K1, American Type Culture Collection, Manassas, Va. 20108, USA). In addition to the respective recombinantly expressed adenosine receptor for testing the efficacy at the A1, A2a and A2b receptors, the cell lines contain a reporter gene construct where expression of the firefly (Photinus pyralis) luciferase is under the control of a promoter which can be activated via intracellular signal cascades by stimulation of the receptors with the (not subtype-selective) adenosine receptor agonist NECA (5′-N-ethylcarboxamidoadenosine) [S. J. Hill, J. G. Baker, S. Rhees, Curr. Opin. Pharmacol. 1, 526-532 (2001)].
In the case of the A2a and A2b cell lines, this is a minimal promoter having a plurality of cAMP-responsive elements (CRE). Stimulation of the Gs-coupled A2b or A2a receptors by NECA ultimately leads, via formation of cAMP, to CRE-dependent induction of luciferase expression, which is detected 3 hours after the start of the incubation with NECA using a detection solution in a suitable luminometer. For testing the antagonists, initially, in a pre-experiment, the concentration of NECA which, at the test day in question, results in half-maximum stimulation of luciferase expression (EC50 concentration) is determined. By joint incubation of this EC50 concentration of NECA with the substances to be tested, it is possible to determine their antagonistic activity.
Table 1 below lists the IC50 values from the A2b receptor assay for individual working examples (in some cases as means of a plurality of independent individual determinations and rounded to two significant figures; it may also be the case here that various independent preparations of the respective working example have been used): […]

The IC50 is the concentration that inhibits the measured activity by half. As for `COCCn1c(=O)n(C2CC2C)c(=O)c2c(C)c(CN3CCNC3=O)sc21` (racemic) [Example 258, 1-(2-Methoxyethyl)-5-methyl-3-(2-methylcyclopropyl)-6-[(2-oxoimidazolidin-1-yl)methyl]thieno[2,3-d]pyrimidine-2,4(1H,3H)-dione], the IC50 stood at 0.0064 µM.

In the case of `Cc1c(CN2CCNC2=O)sc2c1c(=O)n([C@H]1C[C@@H]1C)c(=O)n2CC1CCC(F)(F)C1` (single isomer, unassigned) [Example 257], the IC50 was 0.0068 µM. To `COCCn1c(=O)n(C2CC(C)(C)C2)c(=O)c2c(C)c(CN3CCNC(=O)C3=O)sc21` [Example 172, 3-(3,3-Dimethylcyclobutyl)-6-[(2,3-dioxopiperazin-1-yl)methyl]-1-(2-methoxyethyl)-5-methylthieno[2,3-d]pyrimidine-2,4(1H,3H)-dione] belongs 0.036 µM.

Turning to `COC(=O)N=C1NCCN1Cc1sc2c(c1C)c(=O)n(C1(C)CCC1)c(=O)n2CCC(F)(F)F` [Example 136, Methyl [1-{[5-methyl-3-(1-methylcyclobutyl)-2,4-dioxo-1-(3,3,3-trifluoropropyl)-1,2,3,4-tetrahydrothieno[2,3-d]pyrimidin-6-yl]methyl}imidazolidin-2-ylidene]carbamate], the IC50 is 0.019 µM.

For the compound `COCCn1c(=O)n(C2CC(F)(F)C2)c(=O)c2c(C)c(CN3CCNC3=NC(=O)OC)sc21` [Example 127, Methyl [1-{[3-(3,3-difluorocyclobuty)-1-(2-methoxyethyl)-5-methyl-2,4-dioxo-1,2,3,4-tetrahydrothieno[2,3-d]pyrimidin-6-yl]methyl}imidazolidin-2-ylidene]carbamate], the IC50 was determined as 0.01 µM.

For `Cc1c(CN2CCNC2=O)sc2c1c(=O)n(C1(C)CC1)c(=O)n2C` [Example 52, 1,5-Dimethyl-3-(1-methylcyclopropyl)-6-[(2-oxoimidazolidin-1-yl)methyl]thieno[2,3-d]pyrimidine-2,4(1H,3H)-dione], the IC50 came to 0.019 µM. To `Cc1c(Cn2nc[nH]c2=O)sc2c1c(=O)n(C1CC1)c(=O)n2CC1CCC1(F)F` (single isomer, unassigned; enantiomer 1) [Example 202, 3-Cyclopropyl-1-[(2,2-difluorocyclobutyl)methyl]-5-methyl-6-[(5-oxo-4,5-dihydro-1H-1,2,4-triazol-1-yl)methyl]thieno[2,3-d]pyrimidine-2,4(1H,3H)-dione (enantiomer 1)] belongs 0.14 µM; to `Cc1c(CN2CCNC2=O)sc2c1c(=O)n(C1CC3(CCC3)C1)c(=O)n2CCC(F)(F)F` [Example 174, 5-Methyl-6-[(2-oxoimidazolidin-1-yl)methyl]-3-(spiro[3.3]hept-2-yl)-1-(3,3,3-trifluoropropyl)thieno[2,3-d]pyrimidine-2,4(1H,3H)-dione], 0.0028 µM; to `Cc1c(CN2CCNC2=O)sc2c1c(=O)n(C1(C)CCC1)c(=O)n2CCC(F)(F)F` [Example 134, 5-Methyl-3-(1-methylcyclobutyl)-6-[(2-oxoimidazolidin-1-yl)methyl]-1-(3,3,3-trifluoropropyl)thieno[2,3-d]pyrimidine-2,4(1H,3H)-dione], 0.034 µM. To `COCCn1c(=O)n(C2CC(F)(F)C2)c(=O)c2c(C)c(CN3CCNC3=NC#N)sc21` [Example 126, [1-{[3-(3,3-Difluorocyclobutyl)-1-(2-methoxyethyl)-5-methyl-2,4-dioxo-1,2,3,4-tetrahydrothieno[2,3-d]pyrimidin-6-yl]methyl}imidazolidin-2-ylidene]cyanamide] belongs 0.014 µM; to `COCCn1c(=O)n(C2CC(C)(C)C2)c(=O)c2c(C)c(CN3CCNC3=NC#N)sc21` [Example 170, [1-{[3-(3,3-Dimethylcyclobutyl)-1-(2-methoxyethyl)-5-methyl-2,4-dioxo-1,2,3,4-tetrahydrothieno[2,3-d]pyrimidin-6-yl]methyl}imidazolidin-2-ylidene]cyanamide], 0.0086 µM.

The values are drawn from US20200016159A1, “N3-CYCLICALLY SUBSTITUTED THIENOURACILS AND USE THEREOF” (Bayer Aktiengesellschaft, priority 2016, published 2020).
